According to patent US20100272824A1, “COMPOSITIONS AND METHODS FOR PREVENTING AND MONITORING DISEASE” (The Texas A&M University System, priority 2009, published 2010):

Tested on: colonocytes
Assay: In situ apoptosis (TUNEL assay), apoptotic index
Format: in vivo, rat
Conditions: pectin intake compared to cellulose intake, ACF/promotion stage, radiation study
Experimental: Apoptosis was measured by the binding of TdT-mediated UTP-biotin nick end labeling (TUNEL assay) to fragmented pieces of DNA using sections (4 μm) of PFA-fixed, paraffin-embedded tissue. Apoptotic cells with condensed chromatin, apoptotic bodies and intense brown staining were counted in 50 crypt columns for each animal. The apoptotic index is 100 times the mean number of apoptotic cells per crypt column divided by the total number of cells per crypt column. Chang et al., “Predictive value of proliferation, differentiation and apoptosis as intermediate markers for colon tumorigenesis” Carcinogenesis 18:721-730 (1997).
Data were analyzed using ANOVA to determine the effect of diet (FO/P vs. CO/C) on apoptosis, high multiplicity ACF, and proliferative zone (SAS Institute Inc.). Colon tumor incidence was analyzed by Chi square analysis and reported as percentage of rats bearing tumors (SAS Institute Inc.).

## pectin
  apoptosis: induced apoptosis
Listed as Pectin
  apoptosis: induced the levels of apoptosis
